Assay results taken from patent US20100297020A1, “PHOSPHORYLATED AND PHOSPHONATED PYRONE ANALOGS FOR THERAPEUTIC TREATMENT” (Limerick Biopharma, Inc., priority 2008, published 2010).
Entries after “also recorded” stand apart in the source; their conditions may differ.

Columns and labels:
[1] = is known to be; cited from earlier work
[2] = tested on: diet-induced obese mice (C57Bl/6, 60% high fat diet); test: Diet induced obese mice: IP-GTT and hyperinsulinemic euglycemic clamp; format: in vivo; details: 10 mg/kg I.P. daily
Experimental: Twenty-three (23) week old C57Bl/6 mice are placed on 60% high fat diet (HFD). After 9 weeks of HFD, mice are injected daily with either vehicle (PBS/NaCO3) or fisetin-3-O-methylphosphonate (compound 3) at a dosage of 10 mg/kg delivered via I.P. injection. HFD is continued throughout the injection period. After 2 weeks (week 10 and 11) of injection, mice are tested for basal blood (non-fasted) glucose levels by tail blood withdrawal. After 3 weeks (week 12) of injection, IP glucose tolerance test (IP-GTT) is performed at a dose of 1 gm dextrose per kilogram body weight. After 4 weeks (week 13) of injection, cannulation surgery is performed on anesthetized mice. Mice are allowed to recover 6 days. After 6 days, hyperinsulinemic euglycemic clamp studies are performed on the mice. After 7 weeks (week 16) of injections, a second IP-GTT is performed on the mice. Three days after the second IP-GTT, mice are sacrificed and blood and tissue samples are collected for further analysis.

[3] = tested on: BB19 cells, human BCECs (brain capillary endothelial cells); test: Cyclosporin uptake assay; format: cell-based; details: 0.1 μM test compound; 1 hour incubation
Experimental: (§1) BB19 cells, human BCECs (brain capillary endothelial cells) immortalized with the E6E7 genes of human papilloma virus, were kindly provided from Jacques G. Prudhomme, Department of Biology, University of California, Riverside, U.S.A. The cells were cultured as monolayer culture in Amniomax™-C100 basal medium (catalog number 17001-157) with Amniomax™-C100 supplement (catalog number 12556-049) (Invitrogen, Basel, CH).
(§2) Cells were seeded onto culture surfaces precoated with 10 μg/cm^2 rat tail collagen type I (BD Bioscience, Allschwil, CH) at a density of approximately 50′000 cells/cm^2 and were cultured in an incubator at 37° C. with 5% CO2, 95% fresh air and saturated humidity. For uptake assays, cells were seeded on precoated 96-well plates. Assays were performed at confluency, after 6 days in culture.
(§3) BB19 cells were seeded 50′000 cells/cm^2 on 96-well plates (Falcon) and incubated under condition described above for 6 days. Before starting the assay, cells were washed 2 times with pre-warmed Dulbecco's MEM with Glutamax-I (catalog number 61965) (Invitrogen AG, Basel, CH), supplemented with 1% non essential amino acids, 1% sodium pyruvate, 50 μg/ml gentamycin (Invitrogen AG) (DMEM). Cells were then incubated for 15 min at 37° C. and 120 rpm in DMEM with or without the specified concentrations of test compounds under investigation. After this pre-incubation, cells were incubated in DMEM containing [propyl-3H]-dihydro-FK506 (3H-tacrolimus, 1 μCi/ml, 34 nM) and with or without the specified concentrations of test compounds for 1 hour at 37° C. and 120 rpm. During this 1-hour incubation period, influx and efflux of the substrate, ^3H-tacrolimus, occur. After the 1-hour incubation period, assay was terminated by placing the assay plate on ice and washing the cells twice with ice-cold DMEM. Determination of cell associated ^3H-tacrolimus was performed by addition of Insta Gel and scintillation liquid to trypsinized cells followed by analysis on a scintillation counter (Packard TriCarb2000, Can berra Packard S.A.). The results are expressed as: % of control=100×[^3H-tacrolimus conc. with test compound]/[^3H-tacrolimus conc. with vehicle]
The cyclosporin uptake assay was performed similarly as described above for tacrolimus uptake assay except that ^3H-cyclosporin was used in place of ^3H-tacrolimus.

[4] = tested on: ZDF rats; test: Pancreas histopathology, insulin staining and TUNEL in ZDF rats; format: in vivo; details: following four weeks of daily treatment
Source text: Pancreas samples from Example 26 are stored in 10% NBF and used in this study. All tissue samples were processed through graded alcohols, cleared in xylene and infiltrated and embedded into paraffin. For the pancreas four 4 micron sections were cut, one was stained with Hematoxylin and Eosin for histopathology, two were immunohistochemically stained with an antibody to insulin to determine beta cell mass and one was stained for apoptosis with the tunel technique.
The insulin staining procedure was performed as follows: Endogenous peroxidase activity was inhibited by incubation in 3% hydrogen peroxide. Non-specific staining was blocked with DAKO Protein Block Serum-Free (Dako, Carpinteria, Calif.). Insulin positive cells were immunohistochemically stained with a polyclonal guinea pig anti-swine insulin antibody at room temperature for 30 minutes (Dako, Carpinteria, Calif.). After incubation with primary antibody, the tissue sections were sequentially incubated with Envision+ HRP Rabbit (Dako, Carpinteria, Calif.). Staining was developed with Liquid DAB+ (Dako, Carpinteria, Calif.) and counterstained with hematoxylin.
Pancreas samples were stained for apoptosis as follows: 4 micron sections were cut and stained for TUNEL utilizing the following kit In Situ Cell Death Detection Kit, AP (Roche Applied Science, catalog 11 684 809 910).

[5] = tested on: male db/db mice; test: 4-week study in db/db mice; format: in vivo
Source text: The animals are maintained (starting at 7-week old) on a 12-hr light and 12-hr dark cycle, and provided with commercial rodent chow, LabDiet® 5K52, and water ad libitum.

[6] = tested on: BB19 cells, human BCECs (brain capillary endothelial cells); test: Tacrolimus uptake assay; format: cell-based; details: Endothelial cell, 1 h, 0.1 μM test compound, 1 hour incubation, 3H-tacrolimus 34 nM, read-out: cell associated ^3H-tacrolimus uptake, % of control
Experimental: as §1, §2, §3

[7] = tested on: male ZDF rats; test: 4 week study in ZDF rats (compound 2, compound 3); format: in vivo
Source text: Seven week old male ZDF rats are used for the study.
Experimental Design: This study is a 4 week study Using 32 7-week old male ZDF rats, divided into 4 treatment arms (8 rats/arm).

[8] = tested on: male C57BL/6 mice; test: Plasma and liver triglyceride in C57BL/6 mice; format: in vivo
Experimental: Experimental Design: This study is a 2-week study conducted with male C57BL/6 mice (24 animals, 3 treatment arms, 8 rats/arm) 9-week old at the start of compound treatment. The animals are maintained (starting at 8-week old) on a 12-hr light and 12-hr dark cycle, and provided with commercial rodent chow Purina 5001 and water ad libitum.
The stock solution of vehicle (HCO-60) is composed of 200 mg of HCO-60 per mL of 80% alcohol. Vehicle is prepared by diluting the HCO-60 stock solution 1:10 with saline. Compound 3 stock solutions are prepared in HCO-60 stock solution and diluted with saline or vehicle to the appropriate dose concentration.
Tail-vein-blood samples are collected from each rat 24 hour after the last treatment (day-14) for plasma triglyceride determination. Animals are sacrificed to obtain liver for triglyceride determination.

[9] = tested on: ZDF rats; test: Oral glucose tolerance test (OGTT) in ZDF rats after the 4 week study; format: in vivo; details: glucose 2 g/Kg PO
Experimental: Following the 4 week study described in Example 26 above, the animals were fasted for 12 hours and on day-29, pre-drug blood samples are collected and glucose level and insulin level are measured. The animals are treated intraperitoneally (i.p.) with the following compounds:
Thirty (30) minutes after the treatment, pre-glucose blood samples are collected and the animals are then dosed with glucose (2 g/Kg, PO). Tail vein blood samples are collected at 30, 60, 90 and 120 minutes. Glucose levela and insulin leveal are measured. FIG. 31 show the plasma glucose level measured during OGTT. […] FIG. 32 show the plasma insulin level measured during OGTT. Phosphonated pyrone analogs raise insulin output in response to OGTT.

## O=c1c(O)c(-c2ccc(O)c(O)c2)oc2cc(O)cc(O)c12 [quercetin aglycone, quercetin]
[1]
  serum half-life: 19 to 25 h

## O=c1c(OCP(=O)(O)O)c(-c2ccc(O)c(O)c2)oc2cc(O)ccc12 [Compound 3, Fisetin-3-O-methylphosphonic acid]
[2]
  basal glucose: reduces basal glucose
  hepatic glucose output: impacts hepatic glucose output; also recorded: reduces hepatic glucose output
  insulin output in response to glucose challenge: less insulin output is required
  tissue glucose uptake during hyperinsulinemic euglycemic clamp: enhances tissue glucose uptake
[2]; IP-GTT 1 gm dextrose per kilogram
  response to IP glucose challenge: improves response to glucose challenge
[3]
  cell associated ^3H-cyclosporin uptake, % of control: 71 % of control
[4]; TUNEL
  islet cell apoptosis: decreases in islet cell apoptosis
[4]
  decrease in islet vacuolar degeneration (inhibition): 43%
  decrease in pancreatic inflammation (inhibition): 35%
[5]; 4 weeks of daily treatment
  body weights: essentially identical that of vehicle treated animals
[5]; compound 3 10 mg/kg daily i.p.
  liver triglyceride at sacrifice (day-29): significantly lower than vehicle treated mice
  plasma cholesterol levels on Day-28: significantly lower than vehicle or rosiglitazone treated mice
  plasma triglyceride levels on Day-28: significantly lower than vehicle or rosiglitazone treated mice
[5]; daily i.p., compound 3 30 and 10 mg/kg, rosiglitazone 10 mg/kg
  plasma glucose level on Day-28: lower than vehicle treated control mice
[6]
  activity at 0.1 µM: 44%
[7]; 4 weeks daily i.p., compared to vehicle treated animals
  plasma insulin levels: require lower insulin levels to maintain nomal glucose levels
[7]; 4 weeks daily i.p., compound 2 100 mg/kg, compound 3 100 mg/kg day 4 and 5, 50 mg/kg day 6-28, rosiglitazone 6 mg/kg
  plasma glucose levels: maintains steady glucose levels
[7]; compared to vehicle treated animals
  glycated hemoglobin levels (% HbA1c) at termination: lower glycated hemoglobin levels
[7]; day 14 and day 21, over vehicle controls
  triglycerides: marked decreases in triglycerides
[8]; 30 mg/kg daily i.p. for 13 days, compared to vehicle
  liver triglyceride: significantly reduces liver triglyceride
[8]; daily i.p. for 13 days, 30 and 3 mg/kg
  plasma triglyceride: reduces plasma triglyceride
[9]
  plasma insulin level during OGTT: raises insulin output
[9]; compound 2 100 mg/kg, compound 3 50 mg/kg i.p.
  plasma glucose level during OGTT: protect against hyperglycemia
